As usually defined, the microsomal CLint is the rate of metabolic loss divided by the concentration. For orientation: IC50 means the point on the concentration scale where inhibition reaches its midpoint.

Where a name gives a salt, the structure may show the parent alone.

This is an account of results in patent publication US9938269B2, “Inhibitor compounds of phosphodiesterase type 10A” (ABBVIE INC., priority 2011, dated 2018).

Data set [1] is described as follows: Determination of the microsomal half-life, rat liver microsomes. The conditions noted are these: rat, liver microsomes, pH 7.4. Background: Liver microsomes are a subcellular fraction often used to study metabolism.
Data set [2] in a line: Determination of the microsomal half-life, human liver microsomes. The conditions noted are these: human, liver microsomes, pH 7.4.
The target in a further data set is T1, PDE10A (human) (Homo sapiens, UniProt Q9Y233).
T1 construct: purchased BPS Bioscience
T1 sequence (Q9Y233 whole entry): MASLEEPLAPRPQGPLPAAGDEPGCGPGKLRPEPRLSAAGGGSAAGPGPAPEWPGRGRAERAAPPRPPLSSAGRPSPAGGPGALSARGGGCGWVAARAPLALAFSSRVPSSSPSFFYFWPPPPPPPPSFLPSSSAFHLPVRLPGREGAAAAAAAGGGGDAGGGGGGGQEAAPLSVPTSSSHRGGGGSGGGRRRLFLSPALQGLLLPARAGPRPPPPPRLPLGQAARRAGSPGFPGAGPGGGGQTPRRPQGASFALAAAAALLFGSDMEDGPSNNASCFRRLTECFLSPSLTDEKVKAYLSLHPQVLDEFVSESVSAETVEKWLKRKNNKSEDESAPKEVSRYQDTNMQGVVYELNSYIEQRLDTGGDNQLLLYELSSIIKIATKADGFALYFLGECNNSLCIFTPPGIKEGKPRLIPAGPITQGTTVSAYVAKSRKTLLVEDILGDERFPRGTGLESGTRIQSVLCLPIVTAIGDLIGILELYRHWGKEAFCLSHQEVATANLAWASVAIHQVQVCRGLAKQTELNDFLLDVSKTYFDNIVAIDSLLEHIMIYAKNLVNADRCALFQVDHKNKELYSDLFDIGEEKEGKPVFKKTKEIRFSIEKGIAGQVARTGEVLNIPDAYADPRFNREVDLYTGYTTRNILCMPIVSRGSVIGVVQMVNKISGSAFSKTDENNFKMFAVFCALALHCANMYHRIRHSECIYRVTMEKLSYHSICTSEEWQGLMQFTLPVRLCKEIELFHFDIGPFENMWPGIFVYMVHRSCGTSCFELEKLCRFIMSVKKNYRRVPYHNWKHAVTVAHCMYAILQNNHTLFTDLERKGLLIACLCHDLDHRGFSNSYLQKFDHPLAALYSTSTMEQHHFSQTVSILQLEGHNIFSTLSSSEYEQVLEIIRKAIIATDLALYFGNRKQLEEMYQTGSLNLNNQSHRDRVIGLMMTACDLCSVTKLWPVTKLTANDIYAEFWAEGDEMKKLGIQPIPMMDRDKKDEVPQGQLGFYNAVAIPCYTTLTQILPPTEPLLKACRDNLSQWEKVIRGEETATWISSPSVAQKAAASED
As to the kind of experiment: Measurement of PDE activity (HTRF cAMP kit), human PDE10A. It counts as biochemical. The conditions noted are these: PDE enzymatic reaction, substrate 20 nM for PDE10, 60 minutes at 29 C. The procedure, abridged:
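HTRF detection of cAMP left after hydrolysis, expressed as percent of uninhibited control to derive IC50. Reaction: serially diluted inhibitor mixed with recombinant enzyme, started with 20 nM cAMP, 60 min at 29 °C in Tris-HCl pH 7.5 buffer containing MgCl2 and BSA.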
In general terms: Time-resolved FRET reads energy transfer from a long-lived donor to a nearby acceptor.

As for `O=C1c2nccc(-c3cncnc3)c2CN1CCc1ccc2ccccc2n1` [compound 467, 4-Pyrimidin-5-yl-6-[2-(2-quinolyl)ethyl]-5H-pyrrolo[3,4-b]pyridin-7-one], the microsomal CLint at 0.5 μM in data set [1] and in data set [2] was less than 100 µL/min/mg throughout. This molecule returned a half-inhibitory concentration (IC50) on PDE10A (human) of 100 to 200 nM.

Regarding `Cc1ncc(-c2ccnc3c2C(=O)N(CCc2nc4ccccc4s2)C3)cn1` [compound 445, 6-[2-(1,3-Benzothiazol-2-yl)ethyl]-4-(2-methylpyrimidin-5-yl)-7H-pyrrolo[3,4-b]pyridin-5-one], the microsomal CLint at 0.5 μM in data set [1] and in data set [2] was less than 100 µL/min/mg throughout. On PDE10A (human), this molecule displayed a 50% inhibitory concentration (IC50) of 100 to 200 nM.

For the molecule `COc1ccc(-c2cccc3c2C(=O)N(CCc2ccc4ccccc4n2)C3)cn1` [Example 54, 7-(6-Methoxy-pyridin-3-yl)-2-(2-quinolin-2-yl-ethyl)-2,3-dihydro-isoindol-1-one], the microsomal CLint at 0.5 μM in data set [1] and in data set [2] was 100 to 220 µL/min/mg each time. The same molecule displayed an IC50 against PDE10A (human) of less than 100 nM.

For the molecule `CN1CCN(c2ccnc3c2C(=O)N(CCc2ccc4ccccc4n2)C3)CC1` [Example 138, 4-(4-Methyl-piperazin-1-yl)-6-(2-quinolin-2-yl-ethyl)-6,7-dihydro-pyrrolo[3,4-b]pyridin-5-one], the microsomal CLint at 0.5 μM in data set [1] and in data set [2] was less than 100 µL/min/mg each time. For the same molecule, the concentration for half-maximal inhibition (IC50) on PDE10A (human) was less than 100 nM.

With `O=C1c2c(-c3ccncc3)ccnc2CN1CCc1nc2ccc(Cl)cc2s1` [compound 403, 6-[2-(6-Chloro-1,3-benzothiazol-2-yl)ethyl]-4-(4-pyridyl)-7H-pyrrolo[3,4-b]pyridin-5-one], the intrinsic metabolic clearance (microsomal CLint) at 0.5 μM in data set [1] is 100 to 220 µL/min/mg; in data set [2], less than 100 µL/min/mg. Moreover, the IC50 against PDE10A (human) was less than 100 nM.

For `O=C1c2cccc(-c3cc[nH]n3)c2CN1CCc1nc2ccccc2s1` [compound 428, 2-[2-(1,3-Benzothiazol-2-yl)ethyl]-4-(1H-pyrazol-3-yl)isoindolin-1-one], the microsomal CLint at 0.5 μM in data set [1] was greater than 220 µL/min/mg; in data set [2], 100 to 220 µL/min/mg. Besides, the IC50 on PDE10A (human) is less than 100 nM.

On to `O=C1c2c(N3CCOCC3)ccnc2CN1CCc1cn2ccccc2n1` [Example 270, 6-(2-Imidazo[1,2-a]pyridin-2-yl-ethyl)-4-morpholin-4-yl-6,7-dihydro-pyrrolo[3,4-b]pyridin-5-one di-trifluoroacetate], for which the intrinsic metabolic clearance (microsomal CLint) at 0.5 μM in data set [1] and in data set [2] was less than 100 µL/min/mg in each case. Also, at PDE10A (human), the half-maximal inhibitory concentration (IC50) is less than 100 nM.

As for `Cc1cccnc1CCN1Cc2nccc(-c3ccncc3)c2C1=O` [compound 409, 6-[2-(3-Methyl-2-pyridyl)ethyl]-4-(4-pyridyl)-7H-pyrrolo[3,4-b]pyridin-5-one], the microsomal CLint at 0.5 μM in data set [1] and in data set [2] was less than 100 µL/min/mg throughout. This molecule showed a concentration for half-maximal inhibition (IC50) at PDE10A (human) of 200 to 500 nM.

With `O=C(O)C1CN(c2ccnc3c2C(=O)N(CCc2ccc4ccccc4n2)C3)C1` [compound 446, 1-[5-oxo-6-[2-(2-quinolyl)ethyl]-7H-pyrrolo[3,4-b]pyridin-4-yl]azetidine-3-carboxylic acid], the microsomal CLint at 0.5 μM in data set [1] and in data set [2] was less than 100 µL/min/mg each time. Moreover, the IC50 on PDE10A (human) fell in the range of 100 to 200 nM.

With `O=C1c2c(OC3COC3)ccnc2CN1CCc1ccc2ccccc2n1` [compound 447, 4-(oxetan-3-yloxy)-6-[2-(2-quinolyl)ethyl]-7H-pyrrolo[3,4-b]pyridin-5-one], the microsomal CLint at 0.5 μM in data set [1] and in data set [2] was 100 to 220 µL/min/mg throughout. This molecule returned a 50% inhibitory concentration (IC50) against PDE10A (human) of less than 100 nM.

Turning to `Cn1c(CCN2Cc3cccc(-c4ccncc4)c3C2=O)nc2c(F)cccc21` [Example 300, 2-[2-(4-Fluoro-1-methyl-1H-benzoimidazol-2-yl)-ethyl]-7-pyridin-4-yl-2,3-dihydro-isoindol-1-one trifluoroacetate], the intrinsic clearance (microsomal CLint) at 0.5 μM in data set [1] is 100 to 220 µL/min/mg; in data set [2] it was greater than 220 µL/min/mg. At PDE10A (human), the IC50 is less than 100 nM.

Regarding `O=C1c2c(-c3ccncc3)ccnc2CN1CCc1ccc2sccc2n1` [compound 472, 4-(4-Pyridyl)-6-(2-thieno[3,2-b]pyridin-5-ylethyl)-7H-pyrrolo[3,4-b]pyridin-5-one], the intrinsic metabolic clearance (microsomal CLint) at 0.5 μM in data set [1] and in data set [2] was 100 to 220 µL/min/mg each time. For the same molecule, the IC50 on PDE10A (human) is less than 100 nM.

As for `O=C1c2cccc(N3CCOCC3)c2CN1CCc1ccc2ccccc2n1` [Example 130, 4-Morpholin-4-yl-2-(2-quinolin-2-yl-ethyl)-2,3-dihydro-isoindol-1-one; compound with trifluoro-acetic acid], the values for the intrinsic clearance (microsomal CLint) at 0.5 μM in data set [1] and in data set [2] were greater than 220 µL/min/mg and 100 to 220 µL/min/mg, respectively. The same molecule yielded a concentration for half-maximal inhibition (IC50) against PDE10A (human) of less than 100 nM.

With `CCc1ccn2cc(CCN3Cc4nccc(-c5ccncc5)c4C3=O)nc2c1` [compound 552, 6-[2-(7-Ethylimidazo[1,2-a]pyridin-2-yl)ethyl]-4-(4-pyridyl)-7H-pyrrolo[3,4-b]pyridin-5-one], the intrinsic clearance (microsomal CLint) at 0.5 μM in data set [1] is 100 to 220 µL/min/mg; in data set [2], less than 100 µL/min/mg. The same molecule showed a concentration for half-maximal inhibition (IC50) on PDE10A (human) of less than 100 nM.

Turning to `Cn1c(CCN2Cc3cccc(-c4cncnc4)c3C2=O)nc2ccccc21` [Example 197, 2-[2-(1-Methyl-1H-benzoimidazol-2-yl)-ethyl]-7-pyrimidin-5-yl-2,3-dihydro-isoindol-1-one], the values for the microsomal CLint at 0.5 μM in data set [1] and in data set [2] were less than 100 µL/min/mg and 100 to 220 µL/min/mg, respectively. Further, the IC50 on PDE10A (human) is less than 100 nM.

Consider `Cc1cc(-c2ccnc3c2C(=O)N(CCc2ccc4ccccc4n2)C3)n(C)n1` [Example 334, 4-(2,5-Dimethyl-2H-pyrazol-3-yl)-6-(2-quinolin-2-yl-ethyl)-6,7-dihydro-pyrrolo[3,4-b]pyridin-5-one], for which the microsomal CLint at 0.5 μM in data set [1] and in data set [2] was less than 100 µL/min/mg in each case. In addition, the half-inhibitory concentration (IC50) against PDE10A (human) was in the range of 100 to 200 nM.

`Cn1nccc1-c1ccnc2c1C(=O)N(CCc1nc3ccccc3n1C)C2` [Example 214, 6-[2-(1-Methyl-1H-benzoimidazol-2-yl)-ethyl]-4-(2-methyl-2H-pyrazol-3-yl)-6,7-dihydro-pyrrolo[3,4-b]pyridin-5-one]: the microsomal CLint at 0.5 μM in data set [1] and in data set [2] was less than 100 µL/min/mg in each case. The IC50 at PDE10A (human) is 100 to 200 nM.

For the molecule `O=C1c2c(cccc2N2CCOCC2)CN1CCc1ccc2cc(F)ccc2n1` [Example 115, 2-[2-(6-Fluoro-quinolin-2-yl)-ethyl]-7-morpholin-4-yl-2,3-dihydro-isoindol-1-one trifluoroacetate], the microsomal CLint at 0.5 μM was less than 100 µL/min/mg in data set [1] and 100 to 220 µL/min/mg in data set [2]. The same molecule yielded an IC50 against PDE10A (human) of less than 100 nM.

With `Cc1cnc(CCN2Cc3nccc(N4CCOCC4)c3C2=O)c(C)c1` [compound 489, 6-[2-(3,5-Dimethyl-2-pyridyl)ethyl]-4-morpholino-7H-pyrrolo[3,4-b]pyridin-5-one], the microsomal CLint at 0.5 μM in data set [1] and in data set [2] was 100 to 220 µL/min/mg in each case. At PDE10A (human), the IC50 is less than 100 nM.

As to `O=C1c2c(cccc2-c2ccc3nc[nH]c3c2)CN1CCc1cn2ccccc2n1` [Example 244, 7-(3H-Benzoimidazol-5-yl)-2-(2-imidazol[1,2-a]pyridin-2-yl-ethyl)-2,3-dihydro-isoindol-1-one], the microsomal CLint at 0.5 μM in data set [1] and in data set [2] was less than 100 µL/min/mg in each case. On PDE10A (human), this molecule registered an IC50 of 100 to 200 nM.

`Nc1ncc2cc(-c3cccc4c3C(=O)N(CCc3ccc5ccccc5n3)C4)ccc2n1` [Example 12, 7-(2-Amino-quinazolin-6-yl)-2-(2-quinolin-2-yl-ethyl)-2,3-dihydro-isoindol-1-one]: the microsomal CLint at 0.5 μM in data set [1] and in data set [2] was 100 to 220 µL/min/mg throughout. Further, the 50% inhibitory concentration (IC50) at PDE10A (human) was less than 100 nM.

For the molecule `CCc1ccn2cc(CCN3Cc4nccc(N5CCOCC5)c4C3=O)nc2c1` [compound 555, 6-[2-(7-Ethylimidazo[1,2-a]pyridin-2-yl)ethyl]-4-morpholino-7H-pyrrolo[3,4-b]pyridin-5-one], the intrinsic metabolic clearance (microsomal CLint) at 0.5 μM was less than 100 µL/min/mg in data set [1] and 100 to 220 µL/min/mg in data set [2]. Moreover, the IC50 against PDE10A (human) is less than 100 nM.

For `O=C1c2c(cccc2N2CCOCC2)CN1CCc1cn2ccccc2n1` [Example 310, 2-(2-Imidazo[1,2-a]pyridin-2-yl-ethyl)-7-morpholin-4-yl-2,3-dihydro-isoindol-1-one], the intrinsic clearance (microsomal CLint) at 0.5 μM in data set [1] and in data set [2] was less than 100 µL/min/mg in each case. Besides, the IC50 at PDE10A (human) is less than 100 nM.

Turning to `COc1ccc(-c2ccnn2C)c2c1C(=O)N(CCc1nc3ccccc3s1)C2` [compound 399, 2-[2-(1,3-Benzothiazol-2-yl)ethyl]-7-methoxy-4-(2-methylpyrazol-3-yl)isoindolin-1-one], the values for the microsomal CLint at 0.5 μM in data set [1] and in data set [2] were 100 to 220 µL/min/mg and less than 100 µL/min/mg, respectively. The molecule further showed an IC50 at PDE10A (human) of less than 100 nM.

As to `COc1ccc(-c2cccnc2)c2c1C(=O)N(CCc1cn3ccccc3n1)C2` [compound 456, 2-(2-Imidazo[1,2-a]pyridin-2-yl-ethyl)-7-methoxy-4-pyridin-3-yl-2,3-dihydro-isoindol-1-one trifluoroacetate], the microsomal CLint at 0.5 μM in data set [1] was 100 to 220 µL/min/mg; in data set [2] it was less than 100 µL/min/mg. The IC50 on PDE10A (human) was less than 100 nM.

`Cn1c(CCN2Cc3nccc(N4CCOCC4)c3C2=O)nc2ccccc21` [Example 216, 6-[2-(1-Methyl-1H-benzoimidazol-2-yl)-ethyl]-4-morpholin-4-yl-6,7-dihydro-pyrrolo[3,4-b]pyridin-5-one]: the intrinsic clearance (microsomal CLint) at 0.5 μM in data set [1] and in data set [2] was less than 100 µL/min/mg each time. The half-inhibitory concentration (IC50) at PDE10A (human) was less than 100 nM.

For the molecule `O=C1c2c(-c3cn[nH]c3)ccnc2CN1CCc1ccc2ccccc2n1` [Example 156, 4-(1H-Pyrazol-4-yl)-6-(2-quinolin-2-yl-ethyl)-6,7-dihydro-pyrrolo[3,4-b]pyridin-5-one], the intrinsic clearance (microsomal CLint) at 0.5 μM in data set [1] was 100 to 220 µL/min/mg; in data set [2], less than 100 µL/min/mg. In addition, the half-maximal inhibitory concentration (IC50) against PDE10A (human) was less than 100 nM.
